From ChEMBL document CHEMBL5113468, “Design, synthesis, and biological evaluation of novel double-winged galloyl derivatives as HIV-1 RNase H inhibitors” (Eur J Med Chem, 2022) come the findings set out here.

Molecules are shown by their SMILES.

Data set [1] deals with Human immunodeficiency virus 1. Put plainly: Antiviral activity against HIV1 3B infected in human MT4 cells assessed as protection against virus-induced cytopathic effect incubated for 5 days by MTT assay. Format: functional, organism-based. The settings on record: Human immunodeficiency virus 1, 3B, MT4, 120 h.
Data set [2] in a line: Cytotoxicity against human MT4 cells assessed as reduction in cell viability measured after 5 days by MTT assay. The data set is classed as toxicity, cell-based. Conditions: time 5 day. On the technique in general: Tetrazolium assays rely on reduction of a dye to a coloured formazan, in cell work by metabolically active cells.
For data set [3], the target named is Human immunodeficiency virus type 1 reverse transcriptase (Human immunodeficiency virus 1, UniProt Q72547). Description: Inhibition of wild-type recombinant HIV-1 group M subtype B BH10 reverse transcriptase RNase-associated RNase H activity expressed in Escherichia coli XL1 blue using 32P-labeled 5'-UUUUUUUUUAGGAUACAUAUGGUUAAAGUAU-3'/5'-ATACTTTAACCATATGTATCC-3' RNA/DNA template-primer as substrate preincubated for 5 mins followed by substrate addition and measured after 15 mins by phosphorimaging analysis.

The test system of data set [4] is Human immunodeficiency virus 2. Put plainly: Antiviral activity against HIV2 ROD infected in human MT4 cells assessed as protection against virus-induced cytopathic effect incubated for 5 days by MTT assay. Format: functional, organism-based. The settings on record: Human immunodeficiency virus 2, ROD, MT4, 120 h. A general note: Damage to the host cells serves as the signal in cytopathic effect assays.

For data set [5], the target named is Human immunodeficiency virus type 1 reverse transcriptase (Human immunodeficiency virus 1) (UniProt Q72547). Put plainly: Inhibition of wild-type recombinant HIV-1 group M subtype B BH10 reverse transcriptase RNase-associated RNase H activity expressed in Escherichia coli XL1 blue at 100 uM using 32P-labeled 5'-[…]-3'/5'-[…]-3' RNA/DNA template-primer as substrate preincubated for 5 mins followed by substrate addition and measured after 15 mins by phosphorimaging analysis relative to control. Conditions: time 20.0 min.

Data set [6] has the same target. Description: Potency index, ratio of beta-thujaplicinol IC50 to test compound IC50 for inhibition of wild-type recombinant HIV-1 group M subtype B BH10 reverse transcriptase RNase-associated RNase H activity expressed in Escherichia coli XL1 blue.
Data set [7] is described as follows: Apparent permeability across apical to basolateral side in human Caco-2 cells at 2 uM measured after 2 hrs by LC-MS/MS analysis. The data set is classed as ADME, cell-based. Background: Passage across Caco-2 layers is used to estimate intestinal permeability.

The EC50 is the midpoint of the concentration-response curve. What is called CC50 is the concentration that lowers cell viability or growth by half. For the compound `Cc1ccnc2c1NC(=O)c1cccnc1N2C1CC1` [NEVIRAPINE], in data set [1], the EC50 worked out at 0.17 µM. Further, the CC50 at 120 h in data set [2] was more than 15 µM.
Broadly, the IC50 is the concentration that inhibits the measured activity by half. With `CN(C(=O)C1CN(C(=O)c2cc(O)c(O)c(O)c2)CCN1S(=O)(=O)c1ccc(N)cc1)c1ccccc1` (centres undefined), the IC50 in data set [3] was found to be 1.78 µM. For the same compound, the concentration for a half-maximal effect (EC50) in data set [1] and in data set [4] was more than 135 µM throughout. The CC50 at 120 h in data set [2] amounted to 135 µM.
One may read the inhibition as the change of the read-out against control, counted positive when it falls. Turning to `N#Cc1ccc(S(=O)(=O)N2CCN(C(=O)c3cc(O)c(O)c(O)c3)C(C(=O)Nc3ccccc3)C2)cc1` (centres undefined), the IC50 in data set [3] was more than 20 µM. The EC50 in data set [1] and in data set [4] was more than 130 µM each time. In addition, the half-maximal cytotoxic concentration (CC50) at 120 h in data set [2] was 130 µM. For the same compound, in data set [5], the inhibition worked out at 60.6%.
For `Nc1ccc(S(=O)(=O)N2CCN(C(=O)c3cc(O)c(O)c(O)c3)C(C(=O)Nc3ccccc3)C2)cc1` (centres undefined), the IC50 in data set [3] came to 0.33 µM. Moreover, the EC50 in data set [1] and in data set [4] was more than 50.8 µM each time. Moreover, in data set [2], the CC50 at 120 h amounted to 50.8 µM.
In the case of `N#Cc1ccc(S(=O)(=O)N2CCN(C(=O)c3cc(O)c(O)c(O)c3)C(C(=O)NCc3ccc(-c4ccccc4)cc3)C2)cc1` (centres undefined), the IC50 in data set [3] amounted to 0.41 µM. Further, the EC50 in data set [1] and in data set [4] was more than 7.9 µM each time. Further, in data set [2], the CC50 at 120 h is 7.9 µM.
`COc1ccc(CNC(=O)C2CN(S(=O)(=O)c3ccc(N)cc3)CCN2C(=O)c2cc(O)c(O)c(O)c2)cc1` (centres undefined): the IC50 in data set [3] worked out at 0.27 µM. The EC50 in data set [1] and in data set [4] was more than 21.7 µM in each case. In addition, the CC50 at 120 h in data set [2] came out at 21.7 µM.
For the compound `Nc1ccc(S(=O)(=O)N2CCN(C(=O)c3cc(O)c(O)c(O)c3)CC2C(=O)Nc2ccccc2)cc1` (centres undefined), the IC50 in data set [3] came out at 0.56 µM. Also, the EC50 in data set [1] and in data set [4] was more than 19.1 µM in each case. The CC50 at 120 h in data set [2] stood at 19.1 µM.
Take `COc1ccc(CNC(=O)C2CN(C(=O)c3cc(O)c(O)c(O)c3)CCN2S(=O)(=O)c2ccc(N)cc2)cc1` (centres undefined): the IC50 in data set [3] worked out at 0.14 µM. Moreover, the EC50 in data set [1] and in data set [4] was more than 20.4 µM each time. In data set [2], the 50% cytotoxic concentration (CC50) at 120 h was 20.4 µM.
As to `Nc1ccc(S(=O)(=O)N2CCN(C(=O)c3cc(O)c(O)c(O)c3)CC2C(=O)NCc2cccc3ccccc23)cc1` (centres undefined), the IC50 in data set [3] was 0.22 µM. For the same compound, the EC50 in data set [1] and in data set [4] was more than 21.6 µM throughout. Moreover, the cytotoxic concentration (CC50) at 120 h in data set [2] came out at 21.6 µM.
As usually defined, the Papp A→B is the apparent permeability from the apical to the basolateral side of a cell layer. `Nc1ccc(S(=O)(=O)N2CCN(C(=O)c3cc(O)c(O)c(O)c3)C(C(=O)NCc3ccco3)C2)cc1` (centres undefined): the IC50 in data set [3] is 0.067 µM. The Ratio IC50 in data set [6] turned out to be 30. The EC50 in data set [1] and in data set [4] was more than 24.7 µM in each case. For the same compound, in data set [2], the CC50 at 120 h was 24.7 µM. The Papp A→B at 2 h, 2 µM in data set [7] came out at 0.2 ×10⁻⁶ cm/s.
As to `CN(C(=O)C1CN(S(=O)(=O)c2ccc(C#N)cc2)CCN1C(=O)c1cc(O)c(O)c(O)c1)c1ccccc1` (centres undefined), the IC50 in data set [3] worked out at 0.31 µM. Further, the EC50 in data set [1] and in data set [4] was more than 113 µM each time. In data set [2], the CC50 at 120 h turned out to be 113 µM.
Regarding `Nc1ccc(S(=O)(=O)N2CCN(C(=O)c3cc(O)c(O)c(O)c3)CC2C(=O)NCc2cccs2)cc1` (centres undefined), the IC50 in data set [3] is more than 100 µM. Also, the EC50 in data set [1] and in data set [4] was more than 235 µM in each case. The CC50 at 120 h in data set [2] was determined as 235 µM. Besides, in data set [5], the inhibition turned out to be 39.6%.
On to `COc1ccc(CNC(=O)C2CN(S(=O)(=O)c3ccc(C#N)cc3)CCN2C(=O)c2cc(O)c(O)c(O)c2)cc1` (centres undefined), for which the IC50 in data set [3] is more than 10 µM. Besides, the EC50 in data set [1] and in data set [4] was more than 21.4 µM each time. Moreover, the CC50 at 120 h in data set [2] was determined as 21.4 µM. For the same compound, the inhibition in data set [5] came to 81.4%.
Regarding `Nc1ccc(S(=O)(=O)N2CCN(C(=O)c3cc(O)c(O)c(O)c3)CC2C(=O)NCc2ccc(-c3ccccc3)cc2)cc1` (centres undefined), the IC50 in data set [3] is 0.34 µM. The EC50 in data set [1] and in data set [4] was more than 18.3 µM each time. Moreover, the CC50 at 120 h in data set [2] is 18.3 µM.
`Nc1ccc(S(=O)(=O)N2CCN(C(=O)c3cc(O)c(O)c(O)c3)C(C(=O)NCc3cccs3)C2)cc1` (centres undefined): the IC50 in data set [3] was more than 100 µM. Besides, the EC50 is more than 235 µM in data set [1] and more than 167 µM in data set [4]. Also, the CC50 at 120 h in data set [2] turned out to be 167 µM. Besides, the inhibition in data set [5] turned out to be 45%.
Regarding `Nc1ccc(S(=O)(=O)N2CCN(C(=O)c3cc(O)c(O)c(O)c3)C(C(=O)NCc3ccc(-c4ccccc4)cc3)C2)cc1` (centres undefined), the IC50 in data set [3] was more than 100 µM. Further, the EC50 in data set [1] and in data set [4] was more than 207 µM throughout. In data set [2], the CC50 at 120 h turned out to be 207 µM. Also, the inhibition in data set [5] came to 47.6%.
Take `Nc1ccc(S(=O)(=O)N2CCN(C(=O)c3cc(O)c(O)c(O)c3)CC2)cc1`: the IC50 in data set [3] was 0.72 µM. Also, the EC50 in data set [1] and in data set [4] was more than 18 µM in each case. Further, the CC50 at 120 h in data set [2] is 18 µM.
As for `CC(C)c1ccc(O)c(=O)c(O)c1` [BETA-THUJAPLICINOL], the EC50 in data set [1] and in data set [4] was more than 2.5 µM in each case.
In the case of `N#Cc1ccc(S(=O)(=O)N2CCN(C(=O)c3cc(O)c(O)c(O)c3)C(C(=O)NCc3ccco3)C2)cc1` (centres undefined), the IC50 in data set [3] was more than 20 µM. For the same compound, the EC50 in data set [1] and in data set [4] was more than 108 µM throughout. The 50% cytotoxic concentration (CC50) at 120 h in data set [2] was 108 µM. Also, in data set [5], the inhibition amounted to 57.1%.
Consider `Nc1ccc(S(=O)(=O)N2CCN(C(=O)c3cc(O)c(O)c(O)c3)CC2C(=O)NCc2ccco2)cc1` (centres undefined), for which the IC50 in data set [3] came to 0.13 µM. Further, the EC50 in data set [1] and in data set [4] was more than 25.3 µM in each case. For the same compound, the CC50 at 120 h in data set [2] was found to be 25.3 µM.
For the compound `CN(C(=O)C1CN(S(=O)(=O)c2ccc(N)cc2)CCN1C(=O)c1cc(O)c(O)c(O)c1)c1ccccc1` (centres undefined), in data set [3], the 50% inhibitory concentration (IC50) was determined as 0.99 µM. For the same compound, the EC50 in data set [1] and in data set [4] was more than 237 µM each time. For the same compound, in data set [2], the CC50 at 120 h turned out to be 237 µM.
Take `Nc1ccn([C@@H]2CS[C@H](CO)O2)c(=O)n1` [LAMIVUDINE]: the CC50 at 120 h in data set [2] is more than 87.3 µM.
Consider `CC(C)(C)OC(=O)N1CCC2(CCN(C(=O)C3CN(C(=O)c4cc(O)c(O)c(O)c4)CCN3S(=O)(=O)c3ccc(N)cc3)C2)C1` (centres undefined), for which the IC50 in data set [3] came to 0.18 µM. Besides, the EC50 in data set [1] and in data set [4] was more than 42 µM each time. In data set [2], the CC50 at 120 h turned out to be 42 µM.
Consider `N#Cc1ccc(S(=O)(=O)N2CCN(C(=O)c3cc(O)c(O)c(O)c3)C(C(=O)NCc3ccc4ccccc4c3)C2)cc1` (centres undefined), for which, in data set [3], the IC50 is more than 20 µM. In addition, the EC50 in data set [1] and in data set [4] was more than 213 µM each time. The CC50 at 120 h in data set [2] turned out to be 213 µM. For the same compound, the inhibition in data set [5] was 71.9%.
`COCCc1ccc(OCC(O)CNC(C)C)cc1` (centres undefined) [METOPROLOL]: the Papp A→B at 2 h, 2 µM in data set [7] is less than 0.48 ×10⁻⁶ cm/s.
